Test results: patent US8389530B2, “Substituted quinazoline compounds” (Fovea Pharmaceuticals, priority 2008, dated 2013)
Values after ≈ are worked out from the molar mass of the structure shown. Where two headings read alike, the source gives them in different places.

Columns and labels:
[1] = Solubility in aqueous buffer at pH 5 (HPLC/UV); type: physicochemical; details: acetic acid/KOH buffer pH 5, stirred 24 h at room temperature; for solubility at 24 h: acetic acid/KOH buffer, pH 5, aqueous buffer, thermodynamic from solid
Procedure: Solubility of Compounds was determined in aqueous medium using the following procedure.
Two mg of Compound was added to 200 μl buffer (acetic acid/KOH) solution at pH 5. Solution was then stirred for 24 h at room temperature and then centrifuged 10 min at 16,000 rpm. Corresponding supernatants were analyzed by HPLC and UV detection. Calculation of a given Compound concentration was performed by reporting area under the experimental slope onto a calibration slope obtained separately using DMSO-solubilised Compound at different concentrations.

Colour of compounds = type: physicochemical
Src tyrosine kinase = details: in vivo; cited from earlier work
[2] = tested on: VEGF-induced blood retinal barrier breakdown; assay: Inhibition of vascular leakage in a rabbit model of VEGF-induced blood-retinal barrier breakdown; type: in vivo; details: topical 3% (30 mg/ml) 4 times daily for four days, 48 h after intravitreal VEGF, ocular fluorophotometry
Procedure: Intravitreal injection of VEGF in the rabbit eye produces massive retinal vascular leakage (Edelman and Lutz, 2003, Invest. Ophthalmol. Vis. Sci. 2003; 44:ARVO e-abstract No. 328). Based on said animal model, we investigated the efficacy of topical administration of compound 7 of the invention in reducing the retinal leakage in a VEGF-induced blood retinal barrier breakdown in the rabbit. During four days, 3% test compound 7 (30 mg/ml, 10% PEG 400, 87% labrafil) or control items without compound of the Invention were administered 4 times daily by topical administration (50 μl) in the right eye of five rabbits. On day two, animals received a single intravitreal injection of 50 μl (500 ng) recombinant human VEGF 165 (RD systems) into right eye. Forty-seven hours after the VEGF challenge (day four), fluorescein was injected via the marginal ear vein and circulate during one hour. Breakdown of the blood-retinal barrier was evaluated 48 h after VEGF challenge by measuring fluorescein contents into the vitreoretinal compartment using non-invasive scanning ocular fluorophotometry.

[3] = tested on: VEGF-induced blood retinal barrier breakdown; assay: Inhibition of vascular leakage in a rat model of VEGF-induced blood-retinal barrier breakdown; type: in vivo; details: topical 0.51% (5.1 mg/ml) six times over 27 h after intravitreal VEGF, Evans blue
Procedure: We investigated the efficacy of topical administration of compound II of the invention in reducing the retinal leakage in a VEGF-induced blood retinal barrier breakdown in the rat.
Rats were treated by a single intravitreal injection of 5 μl (100 ng) recombinant human VEGF164 (RD Systems) into each eye.
During twenty-seven hours following VEGF injection, 0.51% test compound II of the Invention (5.1 mg/ml buffer pH 5 with 30% cyclodextrin) and control without compound of the Invention were administered six times by topical administration (10 μl) in eyes of sixteen rats.
Twenty-seven hours later after the VEGF challenge, Evans blue dye (45 mg/kg) was injected intravenously and the dye was allowed to circulate during two hours.
Then, each rat was infused with 0.05M citrate buffer pH 3.5 (37° C.) for 2 minutes to allow clearance of the dye. Immediately after said perfusion, both eyes were enucleated and Evans blue dye was extracted by incubating each retina in formamide (Qaum et al Invest. Ophthalmol. Vis. Sci. 2001, Vol 42, No 10). Afterward, the absorbance was measured with a spectrophotometer at 620 nm.
Breakdown of blood-retinal barrier was proportional to the concentration of Evans blue in the retina normalized by Evans blue concentrations in the plasma.

Row | Compound | Solubility (pH 5) in % [1] | solubility at 24 h [1] | Colour (Colour of compounds) | other results
1 | Cc1cccc(C)c1-c1ccc2nc(Nc3ccc(N4CCN(CCN5CCCC5)C4=O)cc3)ncc2c1 [9 Chlorhydrate, 1-{4-[6-(2,6-Dimethyl-phenyl)-quinazolin-2-ylamino]-phenyl}-3-(2-pyrrolidin-1-yl-ethyl)-imidazolidin-2-one] | 0.35% | 3500 µg/mL | Pale yellow | 
2 | CN(C)[C@@H]1CCN(C(=O)COc2ccc(Nc3ncc4cc(-c5cc(O)ccc5Cl)ccc4n3)cc2)C1 [13 base form] | 0.03% |  | Pale green | Solubility (pH 5) in mg/ml [1]: 0.29 mg/ml
3 | Cc1cc(-c2cc(O)ccc2Cl)cc2cnc(Nc3ccc(OCCN4CCCC4)cc3)nc12.Cl [Compound 18, 1-(2-{4-[6-(2-Chloro-5-hydroxy-phenyl)-8-methyl-quinazolin-2-ylamino]-phenoxy}-ethyl)-pyrrolidinium; chloride] | 0.67% | 6700 µg/mL | Pale yellow | 
4 | Cc1ccc(-c2nn(C(C)(C)C)c3ncnc(N)c23)cc1 [PP1] |  |  |  | breakdown of the brain-blood barrier (BBB) (Src tyrosine kinase): decrease breakdown of the brain-blood barrier (BBB); expression of VEGF (Src tyrosine kinase): reduce expression of VEGF; oedema (Src tyrosine kinase): decrease oedema
5 | Cc1cccc(C)c1-c1ccc2nc(Nc3ccc(OCCN4CCC[C@@H]4C(=O)O)cc3)ncc2c1 [compound 8, (R)-1-(2-{4-[6-(2,6-Dimethyl-phenyl)-quinazolin-2-ylamino]-phenoxy}-ethyl)-pyrrolidine-2-carboxylic acid] |  |  |  | Solubility (pH 5) in % ([1]; listed as 8 base form): 0.04%; Solubility (pH 5) in mg/ml ([1]; listed as 8 base form): 0.4 mg/ml; Colour (Colour of compounds; listed as 8 base form): Orange
6 | Cc1cccc(C)c1-c1ccc2nc(Nc3ccc(N4CCN(C(=O)c5ccncc5)CC4)cc3)ncc2c1 [compound 11, (4-{4-[6-(2,6-Dimethyl-phenyl)-quinazolin-2-ylamino]-phenyl}-piperazin-1-yl)-pyridin-4-yl-methanone] |  |  |  | reduction of vascular leakage compared to control [3]: 56%
7 | Cc1cccc(C)c1-c1ccc2nc(Nc3ccc(OCC(=O)N4CC[C@@H](N(C)C)C4)cc3)ncc2c1 [compound 14, 1-((R)-3-Dimethylamino-pyrrolidin-1-yl)-2-{4-[6-(2,6-dimethyl-phenyl)-quinazolin-2-ylamino]-phenoxy}-ethanone] | 0.01% | 140 µg/mL (≈ 282 µM) | Pale yellow | 
8 | Oc1ccc(Cl)c(-c2ccc3nc(Nc4ccc(OCCN5CCCCCC5)cc4)ncc3c2)c1 [compound 16, 3-{2-[4-(2-Azepan-1-yl-ethoxy)-phenylamino]-quinazolin-6-yl}-4-chloro-phenol] | 0.05% | 500 µg/mL (≈ 1020 µM) | Pale yellow | 

More lines, main results first:

Row | Solubility (pH 5) in % [1] | solubility at 24 h [1] | Colour (Colour of compounds) | Compound | other results
9 | 0.09% | 900 µg/mL | Pale yellow | Cc1cccc(C)c1-c1ccc2nc(Nc3ccc(OCCN4CCCC4)cc3)ncc2c1 [6 Chlorhydrate, [6-(2,6-Dimethyl-phenyl)-quinazolin-2-yl]-[4-(2-pyrrolidin-1-yl-ethoxy)-phenyl]-amine] | 
10 | 0.03% | 340 µg/mL (≈ 738 µM) | Yellow | Oc1ccc(Cl)c(-c2ccc3nc(Nc4ccc(OCCN5CCCC5)cc4)ncc3c2)c1 [7 base form, 4-Chloro-3-{2-[4-(2-pyrrolidin-1-yl-ethoxy)-phenylamino]-quinazolin-6-yl}-phenol] | 
11 | 1% |  | Pale yellow | Cc1cccc(C)c1-c1ccc2nc(Nc3ccc(OCCN4CCC[C@@H]4C(=O)O)cc3)ncc2c1 [8 Chlorhydrate, (R)-1-(2-{4-[6-(2,6-Dimethyl-phenyl)-quinazolin-2-ylamino]-phenoxy}-ethyl)-pyrrolidine-2-carboxylic acid] | Solubility (pH 5) in mg/ml [1]: 10 mg/ml
12 | 0.45% | 4500 µg/mL | Pale yellow | O=C1N(CCN2CCCC2)CCN1c1ccc(Nc2ncc3cc(-c4cc(O)ccc4Cl)ccc3n2)cc1 [12 Chlorhydrate, 1-{4-[6-(2-Chloro-5-hydroxy-phenyl)-quinazolin-2-ylamino]-phenyl}-3-(2-pyrrolidin-1-yl-ethyl)-imidazolidin-2-one] | 
13 | 0.19% | 1900 µg/mL | Pale yellow | Cl.Oc1ccc(Cl)c(-c2ccc3nc(Nc4ccc(OCCN5CCCC5)cc4)ncc3c2)c1 [compound 7, 4-Chloro-3-{2-[4-(2-pyrrolidin-1-yl-ethoxy)-phenylamino]-quinazolin-6-yl}-phenol; hydrochloride] | reduction of vascular leakage compared to control [2]: 41%
14 | 0.63% | 6300 µg/mL (≈ 15400 µM) | brown | Cc1cccc(C)c1-c1ccc2nc(Nc3ccc(N4CCNCC4)cc3)ncc2c1 [compound 17, [6-(2,6-Dimethyl-phenyl)-quinazolin-2-yl]-(4-piperazin-1-yl-phenyl)-amine] | 
